Some test systems named below: DMS-114; DMS-273; LXFL 529; M19-MEL; SNB-78; DLD-1; RXF 631; XF498; HOP-18.
What all share (assay): NCI-60 cell line screen, 48 h

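Five compound concentrations were applied to cells in 96-well plates for 48 hours; endpoints were derived by simple linear interpolation of the resulting dose-response curve. Here, GI50 denotes the concentration required for 50% inhibition of growth.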 The source made the active and inactive calls. Cut-off read from the data, not from the text of the source: active = GI50 up to about 1.1 µM and inactive = higher.

For `O=c1c2ccccc2c2nc3ccccc3nc2n1C1CCCCC1`, the GI50 in the test with DMS-114, with DMS-273, in the test with LXFL 529, with M19-MEL and in the test on SNB-78 was > 100 µM (inactive) throughout.

For `COC(=O)c1c(N)n[nH]c1N`, the GI50 with DLD-1, in the test with DMS-273, in the test on M19-MEL, in the test on RXF 631, in the test with SNB-78 and in the test with XF498 was > 100 µM (inactive) each time.

Regarding `CCC1(OC(=O)CN2CCN(CCO)CC2)C(=O)OCc2c1cc1n(c2=O)Cc2cc3ccccc3nc2-1` (centres undefined), the GI50 in the test with DLD-1 was 6.62 µM (inactive); with DMS-114 it was 0.558 µM (active); with DMS-273, 0.0652 µM (active); in the test with HOP-18, 0.76 µM (active); with LXFL 529, 6.05 µM (inactive); with M19-MEL, 0.789 µM (active). For the same compound, the values for the GI50 with SNB-78 and in the test with XF498 were 5.25 µM (inactive) and 2.16 µM (inactive), respectively.

For `NC(=S)N/N=C1\C(=O)N(CCc2ccccc2)C(=O)C1C(=O)NCCc1ccccc1` (centres undefined), the GI50 with DMS-114 is 74.8 µM (inactive); in the test on DMS-273, > 100 µM (inactive); in the test with HOP-18 it was > 100 µM (inactive); in the test on LXFL 529 it was > 100 µM (inactive); in the test on M19-MEL, > 100 µM (inactive); in the test with SNB-78, > 100 µM (inactive).

Consider `CCO/C=C1\N=C(c2ccc(Cl)c(Cl)c2)OC1=O`, for which the GI50 with DLD-1 was > 100 µM (inactive); in the test with DMS-114, 28.4 µM (inactive); with DMS-273, > 100 µM (inactive); with LXFL 529, > 100 µM (inactive); with M19-MEL it was > 100 µM (inactive); in the test with SNB-78 it was > 100 µM (inactive). In addition, the GI50 with XF498 is > 100 µM (inactive).

Turning to `Cc1cc(Cl)ccc1NC(=O)C1C(=O)N(c2ccc(Cl)cc2C)C(=O)/C1=N\N` (centres undefined), the GI50 was 30.1 µM (inactive) in the test on DMS-114; 40.6 µM (inactive) in the test on HOP-18; 44 µM (inactive) in the test with LXFL 529; 43.2 µM (inactive) with M19-MEL; 74.8 µM (inactive) in the test with SNB-78; 65 µM (inactive) with XF498.

Turning to `c1ccc2c(c1)[nH]c1c[nH]c3c4cccnc4nc-3c12`, the GI50 in the test with DLD-1 is 15.6 µM (inactive); in the test on DMS-114 it was 19 µM (inactive); with HOP-18, 18.6 µM (inactive); with LXFL 529, 18.5 µM (inactive); in the test with M19-MEL it was 16.9 µM (inactive); in the test on SNB-78 it was 23.4 µM (inactive).

Consider `CCOC(=O)/C(O)=C(/c1n[nH]c(=O)c2ccccc12)[N+](=O)[O-]`, for which the GI50 with DLD-1, in the test on DMS-114, with DMS-273, in the test on HOP-18, in the test with LXFL 529 and in the test on M19-MEL was > 100 µM (inactive) each time. In addition, the GI50 in the test on SNB-78 was > 100 µM (inactive).

As for `C=C1C(=O)OC2/C=C(\C)C(OC(C)=O)C3OC3C(C)(O)CC(OC(=O)/C(C)=C/C)C12` (centres undefined), the GI50 was 5.45 µM (inactive) in the test with DMS-114; 24.5 µM (inactive) in the test with DMS-273; 11.3 µM (inactive) in the test on HOP-18; 2.44 µM (inactive) with LXFL 529; 8.49 µM (inactive) in the test on M19-MEL; 8.3 µM (inactive) in the test with SNB-78. Moreover, the GI50 in the test with XF498 is 6.87 µM (inactive).

For `COC(=O)C1=C(C(=O)OC)C2(c3ccccc3)OC1(c1ccccc1)c1cc3ccccc3cc12`, the GI50 is 1.74 µM (inactive) in the test with DLD-1; 1.76 µM (inactive) in the test on DMS-273; 1.22 µM (inactive) with HOP-18; 1.22 µM (inactive) with LXFL 529; 1.98 µM (inactive) in the test on M19-MEL; 1.88 µM (inactive) in the test with RXF 631.

As to `COc1cc(Cl)c2c3c(c(C(=O)c4ccccc4)oc13)CCC2`, the GI50 was > 100 µM (inactive) in the test with DLD-1; > 100 µM (inactive) in the test on DMS-114; 69.7 µM (inactive) in the test on DMS-273; > 100 µM (inactive) with HOP-18; > 100 µM (inactive) with LXFL 529; > 100 µM (inactive) in the test with M19-MEL. The GI50 in the test with SNB-78 and with XF498 was > 100 µM (inactive) in each case.

On to `Cc1c2n(c(=O)[nH]c1=O)C1OC(CO)C(N=[N+]=[N-])C1O2` (centres undefined), for which the GI50 in the test on DLD-1, in the test with DMS-114, in the test with DMS-273, with LXFL 529, in the test with M19-MEL and with SNB-78 was > 100 µM (inactive) throughout.

As to `CC[C@@]1(OP(=O)(O)O)C(=O)OCc2c1cc1n(c2=O)Cc2cc3ccccc3nc2-1`, the GI50 in the test with DLD-1 was 1.11 µM (active); with DMS-114, 0.0485 µM (active); in the test with DMS-273, 0.0513 µM (active); with HOP-18 it was 1.08 µM (active); in the test with LXFL 529, 1.73 µM (inactive); in the test on M19-MEL it was 1.01 µM (active). Besides, the GI50 was 4.63 µM (inactive) in the test with SNB-78 and 0.221 µM (active) in the test on XF498.

In the case of `CN(CC1NCCCC1O)C12CC3CC(CC(C3)C1)C2` (centres undefined), the GI50 in the test with DLD-1, in the test with DMS-114, in the test with DMS-273, in the test on HOP-18, in the test on LXFL 529 and with M19-MEL was > 100 µM (inactive) in each case. Also, the GI50 in the test with XF498 is > 100 µM (inactive).

Take `CCOC(=O)CN(c1ccccc1)c1nc(=[N+](C)C)ss1`: the GI50 was 6.93 µM (inactive) in the test on DLD-1; 0.309 µM (active) in the test on DMS-114; 0.318 µM (active) in the test with DMS-273; 53 µM (inactive) in the test with HOP-18; 0.303 µM (active) in the test with M19-MEL; 32.4 µM (inactive) in the test on SNB-78.

Consider `O=c1cc(CO)oc2c3c(cc(O)c12)OCC(COC1OC(CO)C(O)C(O)C1O)=CC3` (centres undefined), for which the GI50 in the test with DLD-1, with DMS-114, in the test on DMS-273, in the test with HOP-18, in the test on LXFL 529 and in the test on M19-MEL was > 100 µM (inactive) each time. The GI50 in the test with SNB-78 was > 100 µM (inactive).

As to `CC(CCc1ccc2c(c1)c(N)c1ccc(N)cc1[n+]2[O-])CC(C)(C)C` (centres undefined), the GI50 was 1.82 µM (inactive) with DLD-1; 2.21 µM (inactive) in the test on DMS-273; 1.93 µM (inactive) in the test with HOP-18; 1.53 µM (inactive) in the test with LXFL 529; 1.44 µM (inactive) in the test on M19-MEL; 1.65 µM (inactive) with RXF 631. The GI50 in the test with SNB-78 was 2.05 µM (inactive); with XF498, 1.16 µM (inactive).

Consider `C[C@]12CC[C@H](O)CC1CCC[C@@H]2O` (some centres undefined), for which the GI50 in the test with DLD-1, in the test with DMS-114, with DMS-273, with LXFL 529, with RXF 631 and in the test with SNB-78 was > 100 µM (inactive) in each case. Besides, the GI50 in the test on XF498 is > 100 µM (inactive).

`CC1(C)c2ccccc2N2C(c3ccccc3)=NOC21C` (centres undefined): the GI50 with DLD-1, in the test on DMS-114, with DMS-273, with HOP-18, with LXFL 529 and in the test with M19-MEL was > 100 µM (inactive) each time. In addition, the GI50 with RXF 631 and with SNB-78 was > 100 µM (inactive) each time.

Values taken from ChEMBL document CHEMBL1201862, “PubChem BioAssay data set” (2004).
